From US11998532B1 (priority 2023, dated 2024)
≈ marks a conversion by molar mass, not a printed value.

The molecules below were run on Susceptible (H37Rv) strain of Mycobacterium tuberculosis (assay: Resazurin Microplate Assay (REMA), anti-tubercular activity, H37Rv). Conditions: 192 h, read-out: MIC Susceptible (H37Rv).
Assay type: cell-based

In order of rising MIC:
1. COc1ccc(Cl)cc1-n1ncc(-c2nnc(-c3ccc(F)cc3)o2)c1C [Compound 7b, 2-(1-(5-Chloro-2-methoxyphenyl)-5-methyl-1H-pyrazol-4-yl)-5-(4-fluorophenyl)-1,3,4-oxadiazole]  4 µg/mL (≈ 10.4 µM)
2. COc1ccc(Cl)cc1-n1ncc(-c2nnc(-c3ccc(Cl)cc3)o2)c1C [Compound 7a, 2-(1-(5-Chloro-2-methoxyphenyl)-5-methyl-1H-pyrazol-4-yl)-5-(4-chlorophenyl)-1,3,4-oxadiazole]  4 µg/mL (≈ 9.97 µM)
3. COc1ccc(Cl)cc1-n1ncc(-c2nnc(-c3cc(Cl)cc(Cl)c3)o2)c1C [Compound 7h, 2-(1-(5-Chloro-2-methoxyphenyl)-5-methyl-1H-pyrazol-4-yl)-5-(3,5-dichlorophenyl)-1,3,4-oxadiazole]  4 µg/mL (≈ 9.18 µM)
4. COc1ccc(Cl)cc1-n1ncc(-c2nnc(-c3cccc(F)c3)o2)c1C [Compound 7g, 2-(1-(5-Chloro-2-methoxyphenyl)-5-methyl-1H-pyrazol-4-yl)-5-(3-fluorophenyl)-1,3,4-oxadiazole]  8 µg/mL (≈ 20.8 µM)
5. COc1ccc(Cl)cc1-n1ncc(-c2nnc(-c3ccc(Br)cc3)o2)c1C [Compound 7e, 2-(4-Bromophenyl)-5-(1-(5-chloro-2-methoxyphenyl)-5-methyl-1H-pyrazol-4-yl)-1,3,4-oxadiazole]  8 µg/mL (≈ 17.9 µM)
6. COc1ccc(Cl)cc1-n1ncc(-c2nnc(-c3ccc(C)c(Br)c3)o2)c1C [Compound 7c, 2-(3-Bromo-4-methylphenyl)-5-(1-(5-chloro-2-methoxyphenyl)-5-methyl-1H-pyrazol-4-yl)-1,3,4-oxadiazole]  16 µg/mL (≈ 34.8 µM)
7. COc1ccc(Cl)cc1-n1ncc(-c2nnc(-c3ccccc3)o2)c1C [Compound 7d, 2-(1-(5-Chloro-2-methoxyphenyl)-5-methyl-1H-pyrazol-4-yl)-5-phenyl-1,3,4-oxadiazole]  16 µg/mL (≈ 43.6 µM)
8. COc1ccc(Cl)cc1-n1ncc(-c2nnc(-c3ccc(Cl)c(Cl)c3)o2)c1C [Compound 7i, 2-(1-(5-Chloro-2-methoxyphenyl)-5-methyl-1H-pyrazol-4-yl)-5-(3,4-dichlorophenyl)-1,3,4-oxadiazole]  16 µg/mL (≈ 36.7 µM)
9. COc1ccc(Cl)cc1-n1ncc(-c2nnc(-c3ccc(Br)c(C)c3)o2)c1C [Compound 7f, 2-(4-Bromo-3-methylphenyl)-5-(1-(5-chloro-2-methoxyphenyl)-5-methyl-1H-pyrazol-4-yl)-1,3,4-oxadiazole]  32 µg/mL (≈ 69.6 µM)
10. COc1ccc(Cl)cc1-n1ncc(-c2nnc(-c3ccc(C)c([N+](=O)[O-])c3)o2)c1C [Compound 7j, 2-(1-(5-Chloro-2-methoxyphenyl)-5-methyl-1H-pyrazol-4-yl)-5-(4-methyl-3-nitrophenyl)-1,3,4-oxadiazole]  32 µg/mL (≈ 75.1 µM)
